Assay results taken from PubChem BioAssay (NCI).
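Exposure lasted 48 hours, with cells grown in 96-well plates and compounds tested at five concentrations. GI50 = concentration required for 50% inhibition of growth. TGI is the concentration that stops growth completely.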

Experiments:
Assay in all cases: DTP human tumour cell line panel, 48 h
CAKI-1 renal = system: CAKI-1 renal
EKVX NSCLC = system: EKVX NSCLC
NCI-H460 lung = system: NCI-H460 lung
SNB-75 CNS = system: SNB-75 CNS
NCI-H226 lung = system: NCI-H226 lung
786-0 renal = system: 786-0 renal
OVCAR-3 ovarian = system: OVCAR-3 ovarian
SW-620 colon = system: SW-620 colon
COLO 205 colon = system: COLO 205 colon

Structure (SMILES)	TGI (CAKI-1 renal) [µM]	TGI (EKVX NSCLC) [µM]	TGI (NCI-H460 lung) [µM]	TGI (SNB-75 CNS) [µM]	TGI (NCI-H226 lung) [µM]	TGI (786-0 renal) [µM]	TGI (OVCAR-3 ovarian) [µM]	TGI (SW-620 colon) [µM]	TGI (COLO 205 colon) [µM]	GI50 (CAKI-1 renal) [µM]	GI50 (NCI-H460 lung) [µM]	GI50 (SNB-75 CNS) [µM]	GI50 (NCI-H226 lung) [µM]	GI50 (786-0 renal) [µM]	GI50 (OVCAR-3 ovarian) [µM]	GI50 (SW-620 colon) [µM]	GI50 (COLO 205 colon) [µM]	GI50 (EKVX NSCLC) [µM]
CCCNC1=C(C(=O)OCC)C(=O)CO1	> 100	> 100	> 100	> 100	> 100	> 100	> 100	> 100										
N#C/C(=C\c1ccc(O)c(O)c1)C(N)=S	> 100	> 100	> 100	> 100	> 100	> 100	> 100	> 100	> 100									
CCCCCCCCCCCC(=O)OCC1OC(n2cc(F)c(=O)[nH]c2=O)C(NC(=O)OCc2ccccc2)C(OC(=O)CCCCCCCCCCC)C1O (configuration not stated)	> 100	> 100	> 100	> 100	> 100	> 100	> 100	> 100	> 100									
NC1C[C@H](n2cc(/C=C/Br)c(=O)[nH]c2=O)C[C@@H]1CO (some centres not stated)		> 100	> 100	> 100	> 100	> 100	> 100		> 100									
Nc1ccn(CCNCCn2cnc3nc(N)[nH]c(=O)c32)c(=O)n1		> 100	> 100		> 100	> 100	> 100	> 100	> 100									
COc1ccc(-c2nc3sc4c(c3c(=O)[nH]2)CCCCCC4)cc1	> 33.2		> 33.2	16.5	> 33.2	> 33.2	> 33.2	> 33.2	> 33.2	> 33.2	2.26	2.2	8.17	8.08	1.91	1.81	2.37	
CCN(CC)c1ccc(C(=O)c2ccccc2C(=O)O)c(O)c1	> 100	> 100	> 100	> 100		> 100	> 100	> 100	> 100									
COc1cc(OC(C)=O)cc2c(OC(C)=O)ccc(OC(C)=O)c12	> 100	> 100	> 100			> 100	> 100	> 100										
COC(C(=O)[O][Ge]([CH3])([CH3])[CH3])c1ccccc1 (configuration not stated)	> 100	> 100	> 100	> 100		> 100	> 100	> 100	> 100	> 100	> 100	> 100		> 100	> 100	> 100	> 100	> 100
Cc1[nH]ccc2c1[nH]c1cc(=O)ccc12	> 100	> 100	> 100	> 100	> 100	> 100	> 100	> 100	> 100									
CCOc1ccc(NC(=O)C(=O)CC(=O)C2=C(C)Nc3ccccc3S2)cc1	> 50	> 50	> 50		> 50	> 50	> 50	> 50	> 50									
CC1SC2=NC3=C(c4ccccc4C3=O)C(c3ccc(F)cc3)N2C1=O (configuration not stated)	> 100	> 100	> 100	> 100	> 100	> 100	> 100	> 100	> 100									
CCc1ccccc1NC(=O)C(=O)CC(=O)c1sc(Nc2ccccc2)nc1C	> 100	> 100	> 100	> 100	> 100	> 100	> 100	> 100	> 100									
Cn1cc(-c2ccc3occ(-c4cccc(-c5ccncc5)c4)c3n2)cn1	> 100	> 100	> 100	13.4	> 100	> 100	> 100	> 100	> 100	0.38	0.381	0.404	1.5	1.25	0.479	0.435	0.546	1.25
C=CCC[CH2][Sn]([c]1ccccc1)([c]1ccccc1)[c]1ccccc1	3.18	3.97	3.06	6.88	3.33	2.87	2.91	2.12	3	1.52	1.61	2.49	1.74	1.54	1.54	0.856	1.64	1.89
NNC(=O)/C(=C/c1ccc(Cl)cc1Cl)NC(=O)c1ccccc1	> 100	> 100	> 100	> 100	> 100	> 100	> 100	> 100	> 100									

Structure (SMILES)	TGI (CAKI-1 renal) [µM]	TGI (EKVX NSCLC) [µM]	TGI (NCI-H460 lung) [µM]	TGI (SNB-75 CNS) [µM]	TGI (NCI-H226 lung) [µM]	TGI (786-0 renal) [µM]	TGI (OVCAR-3 ovarian) [µM]	TGI (SW-620 colon) [µM]	TGI (COLO 205 colon) [µM]	GI50 (CAKI-1 renal) [µM]	GI50 (NCI-H460 lung) [µM]	GI50 (SNB-75 CNS) [µM]	GI50 (NCI-H226 lung) [µM]	GI50 (786-0 renal) [µM]	GI50 (OVCAR-3 ovarian) [µM]	GI50 (SW-620 colon) [µM]	GI50 (COLO 205 colon) [µM]	GI50 (EKVX NSCLC) [µM]
Cc1ccccc1[P+](Cc1ccccc1)(c1ccccc1)c1ccccc1	> 100		10.7	20.2	> 100	> 100	> 100	33.3	4	12.1	2.23	2.14	2.35	4.81	1.42	2.62	1.51	
Cc1cc(N(CCC#N)CCC#N)ccc1N=Nc1cccc(C(=O)O)c1	> 100	> 100		> 100	> 100	> 100	> 100	> 100	> 100									
CC1=C(C)C(=O)c2c(cc3ccccn23)C1=O		46.4	31.5	43.1	58.5	72.9	29.2	35.5	34.5									
O=C(CN1CCOCC1)Nc1nc(-c2ccc(Cl)cc2)cs1	> 100	> 100	> 100	62.6	60.9	> 100	76.9	> 100	93									
C1C[OH+]CC[OH+]CCNCC[OH+]CC[OH+]CCN1.N.[Cl-].[Pt+4]	37.8		63.9	20.2	77.4	39.2	19.4	> 100	> 100	7.5	1.81	3.59	23	3.98	4.12	7.62	36.7	
Cc1ccc(NC(=O)C(=O)C(C#N)c2ccccc2C)cc1C (configuration not stated)	> 100	> 100	> 79.9	> 100	> 100	> 100	> 100	> 61.3	> 67.3									
CSc1ccc(C2OC(=O)c3ccccc32)c2ccccc12 (configuration not stated)	> 100	> 100	> 100	61.2		> 100		> 100	> 100									
CCCCCCCCCCCCCCCCN1CC2CCCCC2C1 (configuration not stated)	8.91	21.8	> 100		16.8	14	34.1	15	17.7	2.49	> 100		4.2	3.49	17.6	3.87	4.37	9.19
CC1=Nc2ccccc2S/C1=C(/C)NNC(=O)C(N)=O	> 100	> 100	> 100	> 100		> 100	> 100	> 100	> 100									
CN(C)C(=O)OC(Cn1cncn1)c1ccc(Cl)cc1Cl (configuration not stated)	> 100	> 100	> 100	> 100	> 100	> 100	> 100	> 100	> 100									
C/C(=N\NS(=O)(=O)c1ccccc1)c1ccc(Cl)c(Cl)c1	> 100	> 100	> 100	> 100	> 100	> 100	> 100	> 100	85.3									
Cc1ccc(N=Cc2ccc3c(c2)OCO3)cc1C	> 100	> 100	> 100	> 100	> 100	> 100	> 100	> 100	> 100									
CC1=C(Oc2ccccc2)C(CCC(=O)O)c2c(O)cc(Cl)c(O)c21 (configuration not stated)	> 100	> 100	> 100			> 100	> 100	> 100	> 100									
O=C(N/C(=C\c1ccc2c(c1)OCO2)c1nc2ccccc2[nH]1)c1ccccc1	> 100	> 100	> 100	> 74	77.1	> 100	81.9	> 100	> 60.3									
COc1ccc(OC)c(NC(=O)C2=C(C)NC(C)=C(C(=O)Nc3cc(OC)ccc3OC)C2c2ccccc2)c1	> 100	> 100	> 100	91		> 100	> 100	> 100	> 100									
CC1(C)C(=NNC(=O)C[N+](C)(C)C)C(C)(C)C1=NNC(=O)C[N+](C)(C)C	> 100	> 100	> 100	> 100	> 100	> 100	> 100		> 100									
